Results from PMC1481600 (AIDS Research and Therapy, 2006).
pEC50: −log10 of the molar value. Where two headings read alike, the source gives them in different places. Non-standard residues stand in square brackets, D forms with d. Residues, ends and D or L forms follow the SMILES beside them. Groups on a side chain read outwards from the residue. *: point of attachment. Biotin = O=C1N[C@H]2[C@H](CS[C@H]2CCCCC(=O)*)N1; Ahx = NCCCCCC(=O)O

Columns and labels:
in vitro = conditions: human
HIV-1 strain LAV-Vbu3 [1] = test system: HIV-1 strain LAV-Vbu3
HIV-1 strain LAV-Vbu3 [2] = test: microbe, parasite or virus in culture; conditions: Human immunodeficiency virus 1, MT2, 120 h, read-out: EC50 (anti-HIV activity)
[3] = design: method as in PMID 15546199; conditions: PBS pH 7.4, 37°C; cited from earlier work
[4] = design: method as in PMID 15546199; conditions: spiked plasma, 37°C; cited from earlier work

Compound | CC50 (in vitro) [µM] | Therapeutic Index (LC50/EC50) (HIV-1 strain LAV-Vbu3 [1]; strain LAV-Vbu3) | anti-HIV potency relative to L-Tat9 (times more potent) (HIV-1 strain LAV-Vbu3 [1]; MT-2 cells infected with HIV-1) [fold] | pEC50 (HIV-1 strain LAV-Vbu3 [1]; strain LAV-Vbu3) | further results
CC(=O)N[C@@H](CCCNC(=N)N)C(=O)N[C@@H](CCCCN)C(=O)N[C@@H](CCCCN)C(=O)N[C@@H](CCCNC(=N)N)C(=O)N[C@@H](CCCNC(=N)N)C(=O)N[C@@H](CCC(N)=O)C(=O)N[C@@H](CCCNC(=N)N)C(=O)N[C@@H](CCCNC(=N)N)C(=O)N[C@@H](CCCNC(=N)N)C(N)=O [L-Tat9, reference compound] | 53.8 | 1 | – | – | Therapeutic Index (LC50/EC50) (HIV-1 strain LAV-Vbu3 [1]; listed as L-form of Tat9): poorest therapeutic index; pEC50 (HIV-1 strain LAV-Vbu3 [1]; read-out: EC50 (anti-HIV activity), MT-2 cells infected with HIV-1 strain LAV-Vbu3, MOI 0.01, MTT, 5 days): 4.29
CC(=O)N[C@H](CS)C(=O)N[C@H](CCCCNC(=O)CCCCCNC(=O)CCCC[C@@H]1SC[C@@H]2NC(=O)N[C@@H]21)C(=O)N[C@H](CCCNC(=N)N)C(=O)N[C@H](CCCNC(=N)N)C(=O)N[C@H](CCCNC(=N)N)C(=O)N[C@H](CCC(N)=O)C(=O)N[C@H](CCCNC(=N)N)C(=O)N[C@H](CCCNC(=N)N)C(=O)N[C@H](CCCCN)C(=O)N[C@H](CCCCN)C(=O)N[C@H](CCCNC(=N)N)C(N)=O [R.I.CK(biotin)-Tat9] (Ac-[dC][dK]([Ahx-Biotin])[dR][dR][dR][dQ][dR][dR][dK][dK][dR]-NH2) | 46.8 | 2600 | 2850 | 7.74 | anti-HIV potency relative to RI-Tat9 (times more potent) (HIV-1 strain LAV-Vbu3 [1]; MT-2 cells infected with HIV-1): 47 fold; R (ratio of the EC50 of the bioconjugate to that of its parent drug R.I.CK-Tat9 or SQV) (HIV-1 strain LAV-Vbu3 [1]; MT-2 cells, HIV-1 LAV-Vbu3, MOI 0.01): 0.02
CC(=O)N[C@H](CS)C(=O)N[C@H](CCCCN)C(=O)N[C@H](CCCNC(=N)N)C(=O)N[C@H](CCCNC(=N)N)C(=O)N[C@H](CCCNC(=N)N)C(=O)N[C@H](CCC(N)=O)C(=O)N[C@H](CCCNC(=N)N)C(=O)N[C@H](CCCNC(=N)N)C(=O)N[C@H](CCCCN)C(=O)N[C@H](CCCCN)C(=O)N[C@H](CCCNC(=N)N)C(N)=O [R.I.CK-Tat9, N-acetyl-ckrrrqrrkkr-NH2] (Ac-[dC][dK][dR][dR][dR][dQ][dR][dR][dK][dK][dR]-NH2) | 29.8 | 35 | 60 | 6.07 | –
CC(C)(C)NC(=O)[C@@H]1C[C@@H]2CCCC[C@@H]2CN1C[C@@H](O)[C@H](Cc1ccccc1)NC(=O)[C@H](CC(N)=O)NC(=O)c1ccc2ccccc2n1 [SQV(MeSO3H) (control), saquinavir, reference compound] | – | – | – | – | CC50 at 5 days (in vitro): 25 µM; Therapeutic Index (LC50/EC50) (HIV-1 strain LAV-Vbu3 [1]; MT-2 cells, LC50 in uninfected cells / EC50 in infected cells): 1667; pEC50 (HIV-1 strain LAV-Vbu3 [2]): 7.82
CC(C)(C)NC(=O)[C@@H]1C[C@@H]2CCCC[C@@H]2CN1C[C@@H](OC(=O)C(N)CS)[C@H](Cc1ccccc1)NC(=O)[C@H](CC(N)=O)NC(=O)c1ccc2ccccc2c1 (stereo partly shown) [SQV-Cys ester] | – | – | – | – | half-life of release of active SQV (ester bond) [3]: 14 h; half-life of release of active SQV (ester bond) [4]: 0.9 h
